In patent publication US8173693B2, “Benzenesulfonamide derivatives and pharmaceutical composition thereof” (Purzer Pharmaceutical Co., Ltd., priority 2010, dated 2012):
pIC50: −log10 of the molar value. “And” between values parts separate entries of the source, which are not always exact repeats. Equal entries are not always repeated.

Assays:
[1] = test system: Human hepatoblastoma HepG2 cells; assay: MTT assay; type: cell-based; settings: 72 hr, read-out: IC50 HepaG2
Protocol: (§1) Human Bladder Cancer TSGH cells, Human hepatoblastoma HepG2 cells, Human colorectal adenocarcinoma HT-29 cells, human nasopharyngeal carcinoma KB cells, Human gastric adenocarcinoma AGS cells, Human breast carcinoma MCF-7 cells, lung carcinoma A549 cells, and Human prostate carcinoma PC-3 cells were used in the preliminary cytotoxicity assays of the benzenesulfonamide derivatives of the present invention, and the inhibition activity against the tumor cells was evaluated.
(§2) All cell lines were maintained in RPMI 1640 supplied with 10% fetal bovine serum and maintained in a humidified chamber at 37° C. containing 5% CO2. Then, all cell lines were treated with compounds for 72 hr and subsequently incubated with 0.4 mg/mL of MTT at 37° C. for 2 hr. The medium was removed, and DMSO was added to dissolve MTT precipitate. Cell proliferation was determined by measuring the optical density at 540 nm using a Thermomax microplate reader (Molecular Devices, Sunnyvale, Calif.), and the IC50 values of the benzenesulfonamide derivatives of the present invention were calculated.

[2] = test system: Human colorectal adenocarcinoma HT-29 cells; assay: MTT assay; type: cell-based; settings: 72 hr
Protocol: as §1, §2

[3] = test system: Human Bladder Cancer TSGH cells; assay: MTT assay; type: cell-based; settings: 72 hr
Protocol: as §1, §2

[4] = test system: human nasopharyngeal carcinoma KB cells; assay: MTT assay; type: cell-based; settings: Homo sapiens, KB; MTT assay, 72 hr
Protocol: as §1, §2

tumor cells = assay: Preliminary cytotoxicity assays (MTT, SRB), tumor cell panel; type: cell-based; settings: comparison over Tables 1-4
Protocol: as §1, §2
All cell lines were maintained in RPMI 1640 supplied with 10% fetal bovine serum into 96-well microtiter plates and maintained in a humidified chamber at 37° C. containing 5% CO2. After 24 hr, cell lines in partial wells were fixed in situ with 10% trichloroacetic acid (TCA) to represent a measurement at the time of drug addition (T0). Then, cell lines in other wells were incubated with the benzenesulfonamide derivatives of the present invention for an additional 48 hr, and fixed in situ with 10% TCA to represent a measurement at the time of stopping reaction (Tx). […] Cell proliferation was determined by measuring the optical density at 515 nm using a Thermomax microplate reader (Molecular Devices, Sunnyvale, Calif.). The half-inhibition concention (GI50) of the benzenesulfonamide derivatives of the present invention was obtained from the detected optical density.

[5] = test system: P388 murine leukemia cells; settings: Owa et al., J. Med. Chem. 1999, 42, 3789-3799; read-out: IC50 against P388 murine leukemia cells; cited from earlier work
KB cells = settings: Owa et al., J. Med. Chem. 1999, 42, 3789-3799; read-out: IC50 against KB cells; cited from earlier work
colon 38 cells = settings: Owa et al., J. Med. Chem. 1999, 42, 3789-3799; read-out: IC50 against colon 38 cells; cited from earlier work
[6] = test system: Human breast carcinoma MCF-7 cells; assay: SRB assay; type: cell-based; settings: MCF7, 48 hr
[7] = test system: Human colorectal adenocarcinoma HT-29 cells; assay: SRB assay; type: cell-based; settings: 48 hr
[8] = test system: Human gastric adenocarcinoma AGS cells; assay: SRB assay; type: cell-based; settings: 48 hr
[9] = test system: lung carcinoma A549 cells; assay: SRB assay; type: cell-based; settings: Homo sapiens, 48 hr
[10] = test system: Human prostate carcinoma PC-3 cells; assay: SRB assay; type: cell-based; settings: Homo sapiens; for GI50: PC-3, 48 h; for pIC50: PC-3, 48 hr
Protocol: as §1
(§3) All cell lines were maintained in RPMI 1640 supplied with 10% fetal bovine serum into 96-well microtiter plates and maintained in a humidified chamber at 37° C. containing 5% CO2. After 24 hr, cell lines in partial wells were fixed in situ with 10% trichloroacetic acid (TCA) to represent a measurement at the time of drug addition (T0). Then, cell lines in other wells were incubated with the benzenesulfonamide derivatives of the present invention for an additional 48 hr, and fixed in situ with 10% TCA to represent a measurement at the time of stopping reaction (Tx). After rinsing the plates with PBS and air-drying, 0.4% sulforhodamine B solution (weight per volume in 1% acetic acid) was added to each well and the plates were incubated for 10 min at room temperature. Unbound sulforhodamine B was removed with 1% acetic acid and the plates were air-dried. Cells bound with sulforhodamine B was subsequently solubilized with 10 mM Tris base (Trizma; Sigma). Cell proliferation was determined by measuring the optical density at 515 nm using a Thermomax microplate reader (Molecular Devices, Sunnyvale, Calif.). The half-inhibition concention (GI50) of the benzenesulfonamide derivatives of the present invention was obtained from the detected optical density.

[11] = test system: Human hepatoblastoma HepG2 cells; assay: SRB assay; type: cell-based; settings: 48 hr
Protocol: as §1, §3

[12] = test system: lung carcinoma A549 cells; assay: SRB assay; type: cell-based; settings: Homo sapiens, 48 hr; remark: listed apart in the source
Protocol: as §1, §3

[13] = test system: Human breast carcinoma MCF-7 cells; assay: SRB assay; type: cell-based; settings: MCF7, 48 hr; remark: listed apart in the source
Protocol: as §1, §3

[14] = test system: Human colorectal adenocarcinoma HT-29 cells; assay: SRB assay; type: cell-based; settings: 48 hr; remark: listed apart in the source
Protocol: as §1, §3

[15] = test system: Human gastric adenocarcinoma AGS cells; assay: SRB assay; type: cell-based; settings: 48 hr; remark: listed apart in the source
Protocol: as §1, §3

[16] = test system: Human hepatoblastoma HepG2 cells; assay: SRB assay; type: cell-based; settings: 48 hr; remark: listed apart in the source
4T1-Luc cells [17] = assay: In vivo evaluation, long-time treatment, mice implanted with 4T1-Luc cells
Protocol: GM119 (25 mg/kg) and Taxol (10 mg/kg) were simultaneously applied to a mouse implanted with 4T1-Luc cells for a long time to observe the effect of GM119 on the 4T1-Luc cells.
(§4) A suspension of 4T1-Luc cells in matrigel was injected into the breast adipocyte to obtain mice implanted with luciferase tumor cells. […] When the size of the tumor cells was achieved to 200-500 mm^3, the mice were divided into […], and the number of the mice in each group is ≧5. Then, 0/0, 0/25, 10/23, or 10/0 mg/kg of Taxol/GM119 was abdominal-injected into the mice every two days until death of the mice, wherein GM119 and Taxol were dissolved in cremophor, and the volume of injection to each mouse is 50 μl. The weight and the number of the mice were recorded every day to analyze the change on the weight and the survival time of the mice. After the drugs were applied to the mice, the size of the tumor cells in the mice was evaluated with bioluminescence every two days.

4T1-Luc cells [18] = assay: In vivo evaluation, short-time treatment, mice implanted with 4T1-Luc cells; settings: short-time treatment, GM119 25 mg/kg, Taxol 10 mg/kg
Protocol: GM119 (25 mg/kg) was applied to a mouse implanted with 4T1-Luc cells for a short time, and then Taxol (10 mg/kg) was applied thereto to observe the effect of GM119 on the 4T1-Luc cells.
as §4, with “0” for “0/0, 0/25, 10/23,”, “25” for “10/0”, “GM119” for “Taxol/GM119”, “for 5 days,” for “every two days until death of the mice,”, “was” for “and Taxol were”, “μl. Then, 0 or 10 mg/kg of Taxol was abdominal-injected into the mice for every 2 days until death of the mice.” for “μl.”

[19] = background statement; cited from earlier work

SMILES: O=S(=O)(Nc1cccc2c(/N=N/c3ccccc3)c[nH]c12)c1ccc(Cl)cc1 [Compound 7c, 4-Chloro-N-(3-phenylazo-1H-indol-7-yl)benzenesulfonamide]
- pIC50 [1]: 4.55
- pIC50 [2]: 4.86
- pIC50 [3]: 4.85
- pIC50 [4]: 4.82
- melting point: 110 to 111 °C
- inhibitory activity against the tumor cells (in words) (tumor cells): higher than that of the compound 5d

SMILES: NS(=O)(=O)c1ccc(S(=O)(=O)Nc2cccc3c(Cl)c[nH]c23)cc1 [Compound E7070]
- pIC50 [5]: 5.92
- pIC50 (KB cells): 4.94
- pIC50 (colon 38 cells): 6.59 and 6.52

SMILES: Cc1ccc(C)c2c1[nH]c1c(NS(=O)(=O)c3ccc(Cl)s3)cccc12 [Compound 6k, 5-Chloro-thiophene-2-sulfonic acid (5,8-dimethyl-9H-carbazol-1-yl)amide]
- pIC50 [6]: < 5.00
- pIC50 [7]: 5.25
- melting point: 232 to 234 °C
- pIC50 [8]: < 5.00
- pIC50 [9]: 5.00
- GI50 [10]: 4.6 µM
- pIC50 [10]: < 5.00
- GI50 [11]: 1.3 µM
- GI50 [12]: 6.5 µM
- GI50 [13]: > 10 µM
- GI50 [14]: 2.1 µM
- GI50 [15]: 6.7 µM
- pIC50 [16]: 5.57

SMILES: CCN(c1cccc2c1[nH]c1c(C)ccc(C)c12)S(=O)(=O)c1ccc(OC)cc1 [Compound 16c, N-(5,8-Dimethyl-9H-carbazol-1-yl)-N-ethyl-4-methoxybenzenesulfonamide]
- pIC50 [6]: 6.10
- pIC50 [7]: 6.52
- melting point: 151 to 152 °C
- pIC50 [8]: 6.00
- pIC50 [9]: < 5.00
- GI50 [10]: 0.06 µM
- pIC50 [10]: 6.52
- GI50 [11]: 0.04 µM
- GI50 [12]: 0.4 µM
- GI50 [13]: 0.4 µM
- GI50 [14]: 0.05 µM
- GI50 [15]: 0.4 µM
- pIC50 [16]: 7.10

SMILES: CCCN(c1cccc2c1[nH]c1c(C)ccc(C)c12)S(=O)(=O)c1ccc(OC)cc1 [Compound 17c, N-(5,8-Dimethyl-9H-carbazol-1-yl)-N-propyl-4-methoxybenzenesulfonamide]
- pIC50 [6]: < 5.00
- pIC50 [7]: 6.10
- melting point: 60 to 62 °C
- pIC50 [8]: < 5.00
- pIC50 [9]: 5.00
- GI50 [10]: 3.5 µM
- pIC50 [10]: 5.07
- GI50 [11]: 0.8 µM
- GI50 [12]: 5.9 µM
- GI50 [13]: 6.1 µM
- GI50 [14]: 0.3 µM
- GI50 [15]: 0.6 µM
- pIC50 [16]: 5.72

SMILES: COc1ccc(S(=O)(=O)N(C)c2cccc3c2[nH]c2c(C)ccc(C)c23)cc1 [Compound 15c, N-(5,8-Dimethyl-9H-carbazol-1-yl)-N-methyl-4-methoxybenzenesulfonamide]
- pIC50 [6]: < 5.00
- pIC50 [7]: < 5.00
- melting point: 88 to 89 °C
- pIC50 [8]: < 5.00
- pIC50 [9]: < 5.00
- GI50 [10]: > 10 µM
- pIC50 [10]: < 5.00
- GI50 [11]: > 10 µM
- GI50 [12]: > 10 µM
- GI50 [13]: > 10 µM
- GI50 [14]: > 10 µM
- GI50 [15]: > 10 µM
- pIC50 [16]: < 5.00

SMILES: COc1ccc(S(=O)(=O)N(c2cccc3c2[nH]c2c(C)ccc(C)c23)C(C)C)cc1 [Compound 18c, N-(5,8-Dimethyl-9H-carbazol-1-yl)-N-isopropyl-4-methoxybenzenesulfonamide]
- pIC50 [6]: < 5.00
- pIC50 [7]: 6.15
- melting point: 222 to 224 °C
- pIC50 [8]: < 5.00
- pIC50 [9]: < 5.00
- GI50 [10]: 4 µM
- pIC50 [10]: 5.03
- GI50 [11]: 0.5 µM
- GI50 [12]: 7.8 µM
- GI50 [13]: 9.5 µM
- GI50 [14]: 0.2 µM
- GI50 [15]: 0.5 µM
- pIC50 [16]: 5.80

SMILES: CC(=O)O[C@H]1C(=O)[C@@]2(C)[C@H]([C@H](OC(=O)c3ccccc3)[C@]3(O)C[C@H](OC(=O)[C@H](O)[C@@H](NC(=O)c4ccccc4)c4ccccc4)C(C)=C1C3(C)C)[C@]1(OC(C)=O)CO[C@@H]1C[C@@H]2O [Taxol, reference compound]
- survival of the mice (4T1-Luc cells [17]; long time: Taxol 10 mg/kg and/or GM119 25 mg/kg abdominal-injected every two days until death, FIG. 3): the survival of the mice can be increased
- growth of the tumor cells (bioluminescence) (4T1-Luc cells [17]; long-time treatment): the growth of the tumor cells can be inhibited
- growth of the tumor cells (bioluminescence) (4T1-Luc cells [18]): the growth of the tumor cells can be inhibited

SMILES: Cc1ccc(C)c2c1[nH]c1c(NS(=O)(=O)c3cccc(C(F)(F)F)c3)cccc12 [Compound 6j, N-(5,8-Dimethyl-9H-carbazol-1-yl)-3-trifluoromethylbenzenesulfonamide]
- pIC50 [6]: < 5.00
- pIC50 [7]: < 5.00
- melting point: 217 to 218 °C
- pIC50 [8]: < 5.00
- pIC50 [9]: < 5.00
- GI50 [10]: > 10 µM
- pIC50 [10]: < 5.00
- GI50 [11]: > 10 µM
- GI50 [12]: > 10 µM
- GI50 [13]: > 10 µM
- GI50 [14]: > 10 µM
- GI50 [15]: > 10 µM
- pIC50 [16]: < 5.00

SMILES: O=[N+]([O-])c1ccc(/N=N/c2c[nH]c3c(NS(=O)(=O)c4ccc(Cl)cc4)cccc23)cc1 [Compound 7a, 4-Chloro-N-[3-(4-nitrophenylazo)-1H-indol-7-yl]benzenesulfonamide]
- pIC50 [1]: 5.04
- pIC50 [2]: 5.23
- pIC50 [3]: 5.44
- pIC50 [4]: 5.35
- melting point: 217 to 218 °C
- inhibitory activity against the tumor cells (in words) (tumor cells): higher than that of the compound 5d

SMILES: O=S(=O)(Nc1cccc2c1[nH]c1ccccc12)c1cccc(C(F)(F)F)c1 [Compound 21b, N-(9H-Carbazol-1-yl)-3-trifluoromethylbenzenesulfonamide]
- pIC50 [6]: < 5.00
- pIC50 [7]: < 5.00
- melting point: 188 to 190 °C
- pIC50 [8]: < 5.00
- pIC50 [9]: < 5.00
- GI50 [10]: > 10 µM
- pIC50 [10]: < 5.00
- GI50 [11]: > 10 µM
- GI50 [12]: > 10 µM
- GI50 [13]: > 10 µM
- GI50 [14]: > 10 µM
- GI50 [15]: > 10 µM
- pIC50 [16]: < 5.00

SMILES: COc1ccc(S(=O)(=O)Nc2cccnc2Nc2ccc(O)cc2)cc1 [Compound E7010]
- anti-cancer activity in mice [19]: shows great effect
